In the Kinase Knowledgebase extract (Sharma et al. 2016) one finds IC50 data, which are given here for 8 compounds.

pIC50: −log10 of the molar value.

The target of one test is PIK3CD (Human) (UniProt O00329). In words: Assessment of PIK3CD Kinase Activity.
PIK3CD (Human), sequence (O00329 whole entry, looked up): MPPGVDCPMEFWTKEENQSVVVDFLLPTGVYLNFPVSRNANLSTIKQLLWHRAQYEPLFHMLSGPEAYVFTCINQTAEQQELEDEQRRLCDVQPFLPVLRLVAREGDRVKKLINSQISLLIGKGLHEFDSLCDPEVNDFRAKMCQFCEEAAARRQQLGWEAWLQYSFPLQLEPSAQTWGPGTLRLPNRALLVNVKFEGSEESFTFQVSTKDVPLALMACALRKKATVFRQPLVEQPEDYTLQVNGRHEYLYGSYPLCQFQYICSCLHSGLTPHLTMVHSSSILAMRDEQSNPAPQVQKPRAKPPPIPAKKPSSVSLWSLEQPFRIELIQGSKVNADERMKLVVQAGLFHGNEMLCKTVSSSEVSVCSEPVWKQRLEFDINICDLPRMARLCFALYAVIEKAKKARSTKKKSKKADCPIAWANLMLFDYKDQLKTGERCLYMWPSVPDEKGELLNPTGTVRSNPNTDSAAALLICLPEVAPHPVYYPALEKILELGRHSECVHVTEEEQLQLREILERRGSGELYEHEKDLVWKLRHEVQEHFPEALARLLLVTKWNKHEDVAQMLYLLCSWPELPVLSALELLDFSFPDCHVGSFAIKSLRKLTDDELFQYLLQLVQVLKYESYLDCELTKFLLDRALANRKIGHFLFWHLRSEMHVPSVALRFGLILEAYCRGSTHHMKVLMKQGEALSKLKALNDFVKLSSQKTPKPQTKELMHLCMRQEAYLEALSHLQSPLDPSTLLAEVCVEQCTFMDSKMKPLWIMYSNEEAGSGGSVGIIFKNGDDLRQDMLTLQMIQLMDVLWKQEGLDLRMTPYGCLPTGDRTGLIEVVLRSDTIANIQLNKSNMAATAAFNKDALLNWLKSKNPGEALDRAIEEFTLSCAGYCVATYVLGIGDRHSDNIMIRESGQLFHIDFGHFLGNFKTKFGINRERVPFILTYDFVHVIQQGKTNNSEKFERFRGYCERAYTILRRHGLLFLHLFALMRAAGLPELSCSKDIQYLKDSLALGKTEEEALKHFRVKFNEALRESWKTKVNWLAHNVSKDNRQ
One may read the pIC50 as the negative decadic logarithm of the IC50, by convention in mol/L. Read a low pIC50 as a large IC50. With `CCc1ncc(-c2ccc3ncc4c(c3c2)n(-c2cn(C)nc2C)c(=O)n4C)cc1OC(C)C`, the pIC50 was 7.74.
Same read-out and setting: the result for `COCc1cc(-c2ccc3ncc4c(c3c2)n(-c2cn(C)nc2Cl)c(=O)n4C)cnc1N` reads 8.52; that for `Cn1cc(-n2c(=O)n(C)c3cnc4ccc(-c5cncc(C(C)(C)O)c5)cc4c32)c(Cl)n1`, 8.30.
The same measure, in the same setting: the result for `COCc1ncc(-c2ccc3ncc4c(c3c2)n(-c2cn(C)nc2Cl)c(=O)n4C)cc1OC` reads 8.30.
The compound `CCn1cc(-n2c(=O)n(C)c3cnc4ccc(-c5cnc(C)c(OC(C)C)c5)cc4c32)c(C)n1` gave a pIC50 of 8.30.
`CCNC(=O)c1cc(-c2ccc3ncc4c(c3c2)n(-c2c(C)nn(C)c2C)c(=O)n4C)cnc1NC` gave a pIC50 of 7.41.
The same measure, in the same setting: in the case of `CCn1cc(-n2c(=O)n(C)c3cnc4ccc(-c5ccc(-n6cccn6)cc5)cc4c32)c(C)n1` it was 7.12; in that of `CCNc1cc(-c2ccc3ncc4c(c3c2)n(-c2c(C)noc2C)c(=O)n4C)cnc1Cl`, 7.66.

The target of the next test is PIK3CB (Human) (UniProt P42338). In words: Assessment of PIK3CB Kinase Activity.
PIK3CB (Human), sequence (P42338 whole entry, looked up): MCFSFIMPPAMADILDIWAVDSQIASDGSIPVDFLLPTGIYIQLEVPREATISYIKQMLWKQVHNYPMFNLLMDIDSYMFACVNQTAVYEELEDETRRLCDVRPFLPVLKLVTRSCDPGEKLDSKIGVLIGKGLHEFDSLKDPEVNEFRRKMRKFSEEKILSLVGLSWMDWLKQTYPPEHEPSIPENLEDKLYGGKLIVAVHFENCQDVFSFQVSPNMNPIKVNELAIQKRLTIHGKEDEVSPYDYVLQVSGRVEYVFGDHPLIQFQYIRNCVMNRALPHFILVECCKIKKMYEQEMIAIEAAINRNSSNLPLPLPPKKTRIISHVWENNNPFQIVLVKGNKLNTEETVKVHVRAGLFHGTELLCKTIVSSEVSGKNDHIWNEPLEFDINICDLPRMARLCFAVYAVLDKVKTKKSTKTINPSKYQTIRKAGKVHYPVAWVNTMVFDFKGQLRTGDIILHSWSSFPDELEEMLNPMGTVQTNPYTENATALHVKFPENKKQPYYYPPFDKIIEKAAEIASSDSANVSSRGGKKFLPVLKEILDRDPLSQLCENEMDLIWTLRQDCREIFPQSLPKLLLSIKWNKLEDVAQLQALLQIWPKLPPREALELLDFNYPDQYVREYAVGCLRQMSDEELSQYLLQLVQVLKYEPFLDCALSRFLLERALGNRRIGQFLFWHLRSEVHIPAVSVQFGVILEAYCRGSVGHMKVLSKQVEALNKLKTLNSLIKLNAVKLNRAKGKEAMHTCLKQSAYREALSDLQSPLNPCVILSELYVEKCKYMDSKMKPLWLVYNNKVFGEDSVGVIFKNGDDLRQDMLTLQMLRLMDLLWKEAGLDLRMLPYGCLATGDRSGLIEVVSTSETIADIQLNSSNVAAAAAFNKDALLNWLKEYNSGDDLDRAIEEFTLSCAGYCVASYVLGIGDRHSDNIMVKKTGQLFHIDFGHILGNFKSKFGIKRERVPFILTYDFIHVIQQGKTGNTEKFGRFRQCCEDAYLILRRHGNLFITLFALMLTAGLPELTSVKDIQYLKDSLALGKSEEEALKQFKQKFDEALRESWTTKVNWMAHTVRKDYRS
`CCc1ncc(-c2ccc3ncc4c(c3c2)n(-c2cn(C)nc2C)c(=O)n4C)cc1OC(C)C` showed a negative-log IC50 (pIC50) of 7.14.
The same measure, in the same setting: the result for `COCc1cc(-c2ccc3ncc4c(c3c2)n(-c2cn(C)nc2Cl)c(=O)n4C)cnc1N` reads 8.15; that for `Cn1cc(-n2c(=O)n(C)c3cnc4ccc(-c5cncc(C(C)(C)O)c5)cc4c32)c(Cl)n1`, 8.30.
The same measure, in the same setting: in the case of `COCc1ncc(-c2ccc3ncc4c(c3c2)n(-c2cn(C)nc2Cl)c(=O)n4C)cc1OC` it was 7.62.
The same measure, in the same setting: the result for `CCn1cc(-n2c(=O)n(C)c3cnc4ccc(-c5cnc(C)c(OC(C)C)c5)cc4c32)c(C)n1` reads 7.52; that for `CCNC(=O)c1cc(-c2ccc3ncc4c(c3c2)n(-c2c(C)nn(C)c2C)c(=O)n4C)cnc1NC`, 6.22.
For the compound `CCNc1cc(-c2ccc3ncc4c(c3c2)n(-c2c(C)noc2C)c(=O)n4C)cnc1Cl`, the pIC50 was 7.00.

For the next test, the target named is PIK3CA (human) (UniProt P42336). In words: Assessment of PIK3CA Kinase Activity.
PIK3CA (human), sequence (P42336 whole entry, looked up): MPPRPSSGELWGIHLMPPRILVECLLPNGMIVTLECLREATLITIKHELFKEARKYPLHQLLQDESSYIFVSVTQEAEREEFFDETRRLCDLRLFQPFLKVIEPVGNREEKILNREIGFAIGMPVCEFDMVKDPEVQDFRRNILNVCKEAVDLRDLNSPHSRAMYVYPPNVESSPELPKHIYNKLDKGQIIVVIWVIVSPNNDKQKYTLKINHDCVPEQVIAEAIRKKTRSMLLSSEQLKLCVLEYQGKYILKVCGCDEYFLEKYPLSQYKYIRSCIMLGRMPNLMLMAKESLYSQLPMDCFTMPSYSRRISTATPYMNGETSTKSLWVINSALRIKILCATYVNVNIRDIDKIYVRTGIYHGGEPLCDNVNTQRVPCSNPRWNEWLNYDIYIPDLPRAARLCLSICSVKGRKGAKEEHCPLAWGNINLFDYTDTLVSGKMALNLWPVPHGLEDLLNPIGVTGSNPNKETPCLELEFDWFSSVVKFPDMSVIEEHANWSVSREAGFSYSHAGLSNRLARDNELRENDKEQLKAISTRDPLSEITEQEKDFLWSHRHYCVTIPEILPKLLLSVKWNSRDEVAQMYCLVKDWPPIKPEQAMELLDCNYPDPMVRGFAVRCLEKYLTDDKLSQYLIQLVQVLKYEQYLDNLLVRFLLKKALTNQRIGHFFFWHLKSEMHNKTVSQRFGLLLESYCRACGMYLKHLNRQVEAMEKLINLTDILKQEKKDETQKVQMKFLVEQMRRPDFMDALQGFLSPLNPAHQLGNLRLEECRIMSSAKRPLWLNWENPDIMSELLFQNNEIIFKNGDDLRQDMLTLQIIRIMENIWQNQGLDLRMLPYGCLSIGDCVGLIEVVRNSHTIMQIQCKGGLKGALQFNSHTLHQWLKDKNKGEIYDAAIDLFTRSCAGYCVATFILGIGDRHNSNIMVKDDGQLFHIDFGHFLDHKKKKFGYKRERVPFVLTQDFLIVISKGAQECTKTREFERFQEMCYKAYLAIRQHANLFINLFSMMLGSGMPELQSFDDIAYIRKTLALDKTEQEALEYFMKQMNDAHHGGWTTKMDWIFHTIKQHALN
In turn, `CCc1ncc(-c2ccc3ncc4c(c3c2)n(-c2cn(C)nc2C)c(=O)n4C)cc1OC(C)C` had a pIC50 of 7.39.
`COCc1cc(-c2ccc3ncc4c(c3c2)n(-c2cn(C)nc2Cl)c(=O)n4C)cnc1N` gave a pIC50 of 8.05.
The same measure, in the same setting: the result for `Cn1cc(-n2c(=O)n(C)c3cnc4ccc(-c5cncc(C(C)(C)O)c5)cc4c32)c(Cl)n1` reads 8.10; that for `COCc1ncc(-c2ccc3ncc4c(c3c2)n(-c2cn(C)nc2Cl)c(=O)n4C)cc1OC`, 7.82.
On the same count and under the same terms, the result for `CCn1cc(-n2c(=O)n(C)c3cnc4ccc(-c5cnc(C)c(OC(C)C)c5)cc4c32)c(C)n1` reads 8.40.
On the same count and under the same terms, the result for `CCNC(=O)c1cc(-c2ccc3ncc4c(c3c2)n(-c2c(C)nn(C)c2C)c(=O)n4C)cnc1NC` reads 7.09; that for `CCn1cc(-n2c(=O)n(C)c3cnc4ccc(-c5ccc(-n6cccn6)cc5)cc4c32)c(C)n1`, 7.57.
`CCNc1cc(-c2ccc3ncc4c(c3c2)n(-c2c(C)noc2C)c(=O)n4C)cnc1Cl` showed a pIC50 of 6.86.
